The test system of one data set is asthmatic mice. The experiment in a line: Airway resistance (Raw) response to methacholine in murine model of asthma. The format is in vivo, Balb/cJ mice. Conditions: for airway responsiveness to methacholine provocation (airway resistance, Raw) / airway hyperresponsiveness: asthmatic mice; for airway hyperresponsiveness: methacholine challenge, chronic treatment 7 days, 20 mg/kg (metoprolol 3× daily s.c.; timolol in chow). The protocol:
Balb/cJ mice aged 6 weeks (Jackson Animal Laboratory, Bar Harbor, Maine) were housed under specific pathogen-free conditions and fed a chicken ovalbumin-free diet. The Animal Research Ethics Boards of both the University of Houston and the Baylor College of Medicine approved all experiments reported here. […] Mice were sensitized with subcutaneous injection of 25 μg of ovalbumin adsorbed to aluminum hydroxide on protocol days 2, 9, and 16. Subsequently, mice were given 50 μL of saline solution containing 25 μg of ovalbumin intranasally, on a daily basis, from protocol days 23 through 27. A group of ovalbumin-sensitized saline-challenged mice serves as controls for systemic sensitization and respiratory challenges with ovalbumin. Prior to intranasal administrations, mice were sedated with halothane vapor.
To examine the effects of duration of β-adrenergic ligand therapy on the phenotype of the murine model of asthma, the experimental drugs were administered either acutely or chronically to different groups of asthmatic mice.
Asthmatic mice on acute therapy were given a single intravenous bolus infusion of either β-adrenergic drug or normal saline on protocol day 28, 15 minutes before airway responsiveness to methacholine was determined. […] […] […] These concentrations were chosen based on those producing therapeutic effects in mice in previously published studies. The non-asthmatic mice were fed normal chow.
On protocol day 28, mice were anesthetized, tracheotomized, and connected to a computer-controlled small animal ventilator (Flexivent, Scientific Respiratory Equipment, Inc., Montreal, Canada). Airway resistance (Raw) was measured using the forced oscillation technique. The cellular composition of bronchoalveolar lavage fluid (BALF) was also determined.
To induce airway constriction, a solution containing 150 μg/mL of acetyl-α-methylcholine chloride (methacholine) (Sigma Chemical, St. Louis, Mo.) was infused intravenously at constant rates using a syringe infusion pump (Raze Scientific Instruments, Stanford, Conn.). […] Each methacholine dose was administered for 3 to 5 minutes, during which data were sampled at 1-minute intervals and then averaged.
The complex input impedance of the respiratory system was computed and the value of the real part of respiratory system impedance at 19.75 Hz was taken to reflect the magnitude of airway resistance (Raw). To examine the degree of airway responsiveness of each animal, the values for Raw as a function of methacholine doses were plotted. The largest value for Raw achieved in response to methacholine stimulation was referred to as Rawpeak. For mice that achieved a plateau in the methacholine dose-Raw response curve, the ED50 was calculated by linear interpolation using the GraphPad Prism4 (GraphPad Software, Inc.). […] The Bonferroni test was used to examine the statistical differences between experimental groups. The effects of acute drug treatments on baseline respiratory system mechanics were assessed using a two-tailed paired t-test. A value of P<0.05 was considered significant.
For these experiments, salbutamol was used for chronic administration at 0.5 mg/kg/day with a minipump and for acute administration at 0.15 mg/kg by i.v. bolus 15 minutes prior to challenge. Alprenolol was used at a high dose of 7200 ppm in chow or at a low dose of 720 ppm in chow. Carvedilol was used at a high dose of 2400 ppm in chow or at a low dose of 720 ppm in chow.
The airway resistance (Raw) is plotted as cm H2O ml^−1 s.

Data set [1] deals with tracheas from asthmatic mice. Conditions: asthmatic mice chronically treated; cited from earlier work.
The target of another data set is β2-adrenergic receptor (Mus musculus, UniProt P18762). It is filed as in vivo, mice. Conditions: for level of the β2-adrenergic receptor: chronic treatment; for Bmax (receptor density) / βmax (receptor density): lung membranes, mean±SEM, n=3-5; for Bmax (receptor density): drug treatment 15 Minutes; for βmax (receptor density): drug treatment 28 Days. The protocol: β2-adrenergic receptor numbers were measured in asthmatic mice as follows. […] Mice were sacrificed and lung membranes were isolated as follows. Frozen lung tissue was homogenized in an ice-cold buffer containing 0.32 M sucrose and 25 mM Tris (pH 7.4) using a polytron (Pro 200, Pro Scientific, Inc.). The homogenate was centrifuged at 1000×g for 10 min at 4° C. The resulting supernatant was centrifuged at 40,000×g for 20 min at 4° C. The pellet was suspended in an ice-cold 25 mM Tris-HCl buffer (pH 7.4) and centrifuged at 40,000'g for 20 min at 4° C. The final pellet was suspended in 200 μL of 25 mM Tris-HCl (pH 7.4); membrane protein concentration was determined by BCA protein assay kit. […] The incubation was done at 37° C. for 2 h and terminated by rapid vacuum filtration through glass fiber filters. The filters were washed three times with 250 μL of cold wash buffer (25 mM Tris-HCl, pH 7.4) and the radioactivity determined in a counter. […] Receptor densities are expressed as femtomoles of sites per milligram of protein. Bmax is determined by nonlinear regression of the saturation binding curves.

The next data set has as its system patients with CHF. Conditions: cited from earlier work.
The subject of data set [2] is antigen-induced bronchoconstriction. Conditions: acute administration; cited from earlier work.
Another data set concerns β-adrenergic receptor. Conditions: U.S. Pat. No. 6,284,800; cited from earlier work.
For data set [3] the following is noted: cited from earlier work.
The test system of data set [4] is sensitized and allergen-challenged mice. The experiment in a line: Aminophylline on acute airway effects of nadolol. It is filed as in vivo. Conditions: 100 mg/kg i.p. during methacholine infusion; untreated and nadolol-treated mice. How it is done:
Mice were sensitized to the allergen ovalbumin as described in Example 1.
At time point 1 (time=−10 min) baseline airway resistance of the mice was determined. At time point 2 (time=−5 min) methacholine was infused into mice to reach their EC70.

The conditions of data set [5]: cited from earlier work. This is another data set of the same source.
The mark [6] stands for this setting: acute: single intravenous bolus 15 minutes before methacholine.
The mark [7] stands for this setting: chronic administration, 28 days (in chow; salbutamol by osmotic minipump).

Results on twelve compounds are retold here after US20070276024A1, “Methods for Treating Diseases and Conditions with Inverse Agonists and for Screening for Agents Acting as Inverse Agonists” (Inverseon , Inc., priority 2003, published 2007).

Each structure is given as a SMILES string. Entries after “also recorded” stand apart in the source; their conditions may differ. Where two headings read alike, the source gives them in different places.

β2-adrenergic receptor, sequence (P18762 whole entry): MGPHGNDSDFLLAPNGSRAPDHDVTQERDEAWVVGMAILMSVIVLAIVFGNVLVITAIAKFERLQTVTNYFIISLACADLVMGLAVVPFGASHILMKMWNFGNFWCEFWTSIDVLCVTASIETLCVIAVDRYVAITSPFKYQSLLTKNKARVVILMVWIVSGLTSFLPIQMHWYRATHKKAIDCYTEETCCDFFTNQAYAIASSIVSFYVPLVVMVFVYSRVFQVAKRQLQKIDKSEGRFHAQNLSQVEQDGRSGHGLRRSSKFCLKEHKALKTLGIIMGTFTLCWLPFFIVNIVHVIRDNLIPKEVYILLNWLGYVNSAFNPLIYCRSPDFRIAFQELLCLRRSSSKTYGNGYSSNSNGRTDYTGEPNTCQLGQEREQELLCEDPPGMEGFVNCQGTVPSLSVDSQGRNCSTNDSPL

Consider `C=CCc1ccccc1OCC(O)CNC(C)C` (stereo not drawn) [Alprenolol, alprenolol], for which the results for the “Decreased Raw” value in the data set on asthmatic mice (15 minutes of administration), in the data set with asthmatic mice (2 days of administration) and in the data set on asthmatic mice (28 days of administration) were “yes”, “no” and “no”, respectively. Besides, the “airway responsiveness to methacholine provocation (airway resistance, Raw)” value in the data set with asthmatic mice (setting [6]) is reported as “airway responsiveness was diminished”; in the data set on asthmatic mice (setting [7]), “does not reduce airway hyperresponsiveness; also recorded: provides no benefit upon chronic administration”. In addition, the “rank of effectiveness on contraction of excised tracheas in response to methacholine” value in data set [1] is “most effective”. Further, the “Increased β2AR density” value is given as “yes” on β2-adrenergic receptor (15 minutes of administration), “no” on β2-adrenergic receptor (2 days of administration) and “no” on β2-adrenergic receptor (28 days of administration). Besides, the “level of the β2-adrenergic receptor” value at β2-adrenergic receptor is on record as “slight decrease”. Further, the “Bmax (receptor density)” value on β2-adrenergic receptor was 299.5 ± 12.19 femtomoles of sites per milligram of protein. The “βmax (receptor density)” value at β2-adrenergic receptor is on record as 179.2 ± 53.05 femtomoles of sites per milligram of protein.
On to `CC(C)(Cc1c[nH]c2ccccc12)NCC(O)COc1ccccc1C#N` (stereo not drawn) [Bucindolol, bucindolol], for which, in the data set with patients with CHF, the “clinical outcome (mortality, benefit over placebo)” value is listed as “failed to demonstrate any benefit over placebo”.
For `CC(C)NC[C@@H](O)COc1cccc2ccccc12` [D-propranolol], in [2], the “antigen-induced bronchoconstriction and airway hyperresponsiveness” value is “beneficial in inhibiting antigen-induced bronchoconstriction and reducing airway hyperresponsiveness”. For the same compound, in the data set with β-adrenergic receptor, the “activity with respect to β-adrenergic receptors” value is “inactive”.
As to `Cc1ccc(OCC(O)C(C)NC(C)C)c2c1CCC2` (stereo not drawn) [ICI-118,551], the “rank of effectiveness on contraction of excised tracheas in response to methacholine” value in [1] was “then ICI-118,551”.
Regarding `CC(C)NC[C@H](O)COc1cccc2ccccc12` [L-form of propranolol, propranolol], in data set [2], the specific lung resistance result was “increased specific lung resistance”.
On to `CC(C)(C)NCC(O)c1ccc(O)c(CO)c1` (stereo not drawn) [Salbutamol, salbutamol], for which the “bioavailability of inhaled drug” value in data set [3] (10 patients with cystic fibrosis versus healthy adults) is “greater”. The “Decreased Raw” value is “yes” in the data set on asthmatic mice (15 minutes of administration), “no” in the data set with asthmatic mice (2 days of administration) and “no” with asthmatic mice (28 days of administration). The “airway responsiveness to methacholine provocation (airway resistance, Raw)” value is given as “reduced the level of airway responsiveness to methacholine provocation” in the data set on asthmatic mice (setting [6]) and “no protection was observed” in the data set with asthmatic mice (setting [7]). Besides, the “Increased β2AR density” value on β2-adrenergic receptor (15 minutes of administration) was “yes”; on β2-adrenergic receptor (2 days of administration) it was “no”; at β2-adrenergic receptor (28 days of administration), “no”. For the same compound, the “level of the β2-adrenergic receptor” value at β2-adrenergic receptor was “slight decrease”. Further, on β2-adrenergic receptor, the “Bmax (receptor density)” value is reported as 256.5 ± 29.24 femtomoles of sites per milligram of protein. Also, the “βmax (receptor density)” value on β2-adrenergic receptor was 97.0 ± 23.02 femtomoles of sites per milligram of protein.
As for `Cn1c(=O)c2[nH]cnc2n(C)c1=O` [aminophylline], the “airway resistance after administration” value in data set [4] was “significant and sustained drop in airway resistance”.
With `CCCC1O[C@@H]2C[C@H]3[C@@H]4CCC5=CC(=O)C=C[C@]5(C)[C@H]4[C@@H](O)C[C@]3(C)[C@]2(C(=O)CO)O1` (stereo partly drawn) [budesonide], in data set [5] (6 children with asthma versus 11 healthy adults), the “plasma clearance of the 2 enantiomers per kilogram of bodyweight, higher in children than adults” value is recorded as “about 50%”. In addition, in [5] (in vivo), the “plasma clearance relative to the average clearance of prednisolone” value is recorded as “about 10 fold” and the “systemic availability of the swallowed fraction” value was 10.7±4.3%.
For `C[C@@H]1C[C@H]2[C@@H]3C[C@H](F)C4=CC(=O)C=C[C@]4(C)[C@@]3(F)[C@@H](O)C[C@]2(C)[C@@]1(O)C(=O)SCF` [fluticasone], the “first-pass hepatic metabolism of the systemically absorbed drug” value in data set [5] (in vivo) was “almost complete”.
Regarding `COCCc1ccc(OCC(O)CNC(C)C)cc1` (stereo not drawn) [metoprolol], the airway hyperresponsiveness result with asthmatic mice is listed as “effective in reducing airway hyperresponsiveness”. For the same compound, the “clinical outcome (mortality, benefit over placebo)” value with patients with CHF was “significant mortality reduction”.
As for `CC(C)(C)NCC(O)c1cc(O)cc(O)c1` (stereo not drawn) [terbutaline], the “increase of bioavailability by the oral component” value in [3] (from an MDI) is listed as 6.7%. The “absorption through the lung” value in data set [3] (healthy smokers versus healthy nonsmokers) is “more rapidly”.
Regarding `CC(C)(C)NC[C@H](O)COc1nsnc1N1CCOCC1` [timolol], the airway hyperresponsiveness result with asthmatic mice is on record as “effective in reducing airway hyperresponsiveness”.
